≈ marks a conversion by molar mass, not a printed value. Where “and” joins values, the source holds several entries; their conditions need not be identical. Equal values may be shown once.

Test systems include Candida krusei ATCC 6258; Candida albicans C627; Escherichia coli DC2; Escherichia coli UB1005; Pseudomonas aeruginosa; Staphylococcus aureus; Bacillus subtilis C971.
Common to all, as to test: ≥ marks a high value that may be exact or a test limit, other limits are often not marked, values filed in µg/mL are converted to µM
Test [1] deals with Candida albicans ATCC 10231.
In test [2] the test system is Candida glabrata ATCC 2001.
Test [3] has as its system Candida parapsilosis ATCC 90018.
Test [4] concerns Candida tropicalis ATCC 750.
In test [5] the test system is Escherichia coli ATCC 25922.
Test [6] has as its system Pseudomonas aeruginosa ATCC 27853.
Test [7] has as its system Staphylococcus aureus ATCC 29213.
Test [8] deals with Aeromonas salmonicida 97-4.
The subject of test [9] is Aeromonas salmonicida 99-1.
Test [10] concerns Candida albicans CCARM 14001.
The test system of test [11] is Candida albicans KCTC 7270.
In test [12] the test system is Escherichia coli CCARM 1229.
Test [13] has as its system Escherichia coli CCARM 1238.
The test system of test [14] is Escherichia coli CGSC 4908.
The test system of test [15] is Escherichia coli KCTC 1682.
For test [16], the system named is Pseudomonas aeruginosa K799.
Test [17] relates to Pseudomonas aeruginosa KCTC 1637.
Test [18] relates to Pseudomonas aeruginosa Z61.
The test system of test [19] is Salmonella enterica serovar typhimurium MS7953s.
Test [20] deals with Salmonella enterica subsp. enterica serovar Typhimurium ATCC 14028s.
Test [21] has as its system Salmonella typhimurium CCARM 8007.
Test [22] deals with Salmonella typhimurium CCARM 8009.
In test [23] the test system is Salmonella typhimurium CCARM 8013.
Test [24] concerns Salmonella typhimurium KCTC 1926.
The test system of test [25] is Staphylococcus aureus C623.
Test [26] concerns Staphylococcus aureus CCARM 3089.
In test [27] the test system is Staphylococcus aureus CCARM 3090.
Test [28] concerns Staphylococcus aureus CCARM 3108.
Test [29] concerns Staphylococcus aureus CCARM 3114.
Test [30] relates to Staphylococcus aureus CCARM 3126.
The subject of test [31] is Staphylococcus aureus KCTC 1621.
The subject of test [32] is Staphylococcus epidermidis C621.
In test [33] the test system is Trichosporon beigelii KCTC 7707.
Test [34] has as its system Corynebacterium xerosis C875.
Test [35] relates to Enterococcus faecalis C625.
Test [36] has as its system Pseudomonas aeruginosa H187.
For test [37], the system named is Pseudomonas aeruginosa H188.
Test [38] relates to Salmonella typhimurium C587.
The subject of test [39] is Salmonella typhimurium C610.
Test [40] relates to Staphylococcus aureus ATCC 25923.
Test [41] deals with Staphylococcus aureus SAP 0017.
The subject of test [42] is Bacillus subtilis MTCC 2763.
Test [43] deals with Escherichia coli MTCC 723.
Test [44] concerns Pseudomonas aeruginosa MTCC 2295.
Test [45] relates to Staphylococcus aureus ATCC BAA-1720.
Test [46] has as its system Staphylococcus aureus MTCC 3160.
Test [47] concerns Staphylococcus epidermidis ATCC 51625.

As to `CC[C@H](C)[C@H](NC(=O)CN)C(=O)N[C@@H](CC(C)C)C(=O)N[C@@H](CC(=O)O)C(=O)N[C@H](C(=O)N[C@@H](CCCCN)C(=O)N[C@@H](CC(N)=O)C(=O)N[C@@H](CCCCN)C(=O)N[C@H](C(=O)N[C@@H](CO)C(=O)N[C@@H](CC(N)=O)C(=O)N[C@@H](CC(C)C)C(=O)N[C@@H](Cc1ccccc1)C(=O)N[C@@H](CCCCN)C(=O)N[C@@H](CCCCN)C(=O)N[C@H](C(=O)N[C@@H](CCCCN)C(=O)NCC(=O)N[C@@H](CCC(=O)O)C(=O)N[C@@H](CCCCN)C(N)=O)[C@@H](C)CC)C(C)C)[C@@H](C)CC` [GILDIKNKVSNLFKKIKGEK], the MIC (as a rule, the least concentration at which growth counts as inhibited) in test [1] was 250 µM (≈ 568 µg/mL); in test [2], not below 500 µM; with Candida krusei ATCC 6258, not below 125 µM; in test [3], not below 500 µM; in [4], not below 500 µM; in test [5] it was more than 130 µM. Moreover, the MIC in test [6] and in test [7] was more than 130 µM in each case.

Consider `CC[C@H](C)[C@H](NC(=O)[C@H](C)NC(=O)[C@H](C)NC(=O)[C@H](CCC(N)=O)NC(=O)CNC(=O)[C@H](CC(C)C)NC(=O)[C@H](Cc1cnc[nH]1)NC(=O)[C@H](CCCCN)NC(=O)[C@H](C)NC(=O)CNC(=O)[C@H](CCCCN)NC(=O)[C@H](CCCNC(=N)N)NC(=O)[C@H](CC(C)C)NC(=O)[C@H](Cc1c[nH]c2ccccc12)NC(=O)[C@H](CCCCN)NC(=O)[C@H](CCCCN)NC(=O)[C@H](Cc1c[nH]c2ccccc12)NC(=O)CN)C(=O)N[C@@H](CCCCN)C(C)=O` [GWKKWLRKGAKHLGQAAIK], for which the MIC is 0.459 µM (≈ 0.999 µg/mL) in test [8]; 0.919 µM (≈ 2 µg/mL) in test [9]; 3.68 µM (≈ 7.99 µg/mL) against Candida albicans C627; 8 µM (≈ 17.4 µg/mL) in test [10]; 8 µM and 16 µM in test [11]; 8 µM (≈ 17.4 µg/mL) in test [12]. The MIC in test [13] was 4 µM (≈ 8.7 µg/mL); in [14], 0.459 µM (≈ 0.999 µg/mL); in the test on Escherichia coli DC2, 0.23 µM (≈ 0.5 µg/mL); in [15] it was 2 µM and 4 µM; against Escherichia coli UB1005, 0.919 µM (≈ 2 µg/mL); in [16], 1.84 µM (≈ 4 µg/mL). In addition, the minimum inhibitory concentration (MIC) in [17] is 4 µM and 8 µM; in test [18] it was 0.459 µM (≈ 0.999 µg/mL); with Pseudomonas aeruginosa it was 4 µM (≈ 8.7 µg/mL); in test [19] it was 0.23 µM (≈ 0.5 µg/mL); in [20], 7.35 µM (≈ 16 µg/mL); in [21], 4 µM (≈ 8.7 µg/mL). Further, the MIC in test [22] was 16 µM (≈ 34.8 µg/mL); in test [23] it was 4 µM (≈ 8.7 µg/mL); in [24], 1 µM and 2 µM; in test [25], 14.7 µM (≈ 32 µg/mL); in test [26], 2 µM (≈ 4.35 µg/mL); in test [27], 8 µM (≈ 17.4 µg/mL). The MIC was 2 µM (≈ 4.35 µg/mL) in test [28]; 4 µM (≈ 8.7 µg/mL) in [29]; 4 µM (≈ 8.7 µg/mL) in [30]; 4 µM and 8 µM in test [31]; 2.83 µM (≈ 6.15 µg/mL) in the test with Staphylococcus aureus; 7.35 µM (≈ 16 µg/mL) in test [32]. Moreover, in test [33], the MIC was 4 µM and 8 µM.

Take `CC[C@H](C)[C@H](NC(=O)[C@H](C)NC(=O)[C@H](CCCCN)NC(=O)[C@H](CC(C)C)NC(=O)[C@H](C)NC(=O)[C@@H](NC(=O)[C@H](Cc1cnc[nH]1)NC(=O)[C@H](CC(C)C)NC(=O)[C@@H](NC(=O)[C@@H](NC(=O)[C@H](CCCCN)NC(=O)[C@@H](NC(=O)[C@H](C)NC(=O)[C@H](CC(C)C)NC(=O)[C@H](CCCCN)NC(=O)[C@H](Cc1ccccc1)NC(=O)[C@@H](NC(=O)[C@H](CCCCN)NC(=O)[C@H](CC(C)C)NC(=O)[C@H](Cc1ccccc1)NC(=O)[C@H](CO)NC(=O)[C@H](CCCCN)NC(=O)[C@H](Cc1c[nH]c2ccccc12)NC(=O)[C@H](CCCCN)NC(C)=O)[C@@H](C)O)C(C)C)[C@@H](C)O)C(C)C)[C@@H](C)O)C(=O)N[C@@H](CO)C(=O)N[C@@H](CO)C(N)=O` [KWKSFLKTFKLAVKTVLHTALKAISS]: the MIC in the test on Bacillus subtilis C971 was determined as 1.7 µM (≈ 5.07 µg/mL); in test [34], 0.848 µM (≈ 2.53 µg/mL); in [35], 17.2 µM (≈ 51.5 µg/mL); against Escherichia coli DC2, 1.7 µM (≈ 5.07 µg/mL); in the test with Escherichia coli UB1005 it was 5.43 µM (≈ 16.2 µg/mL); in test [36], 6.86 µM (≈ 20.5 µg/mL). Also, the MIC in test [37] stood at 10.9 µM (≈ 32.4 µg/mL); in test [38] it was 10.9 µM (≈ 32.4 µg/mL); in test [39], 4.31 µM (≈ 12.9 µg/mL); in [40] it was 10.9 µM (≈ 32.4 µg/mL); in test [41], 10.9 µM (≈ 32.4 µg/mL); in test [32], 5.43 µM (≈ 16.2 µg/mL).

As for `NC(=O)[C@H](CCCN=C(N)N)NC(=O)[C@H](Cc1c[nH]c2ccccc12)NC(=O)[C@H](Cc1c[nH]c2ccccc12)NC(=O)[C@H](CCCN=C(N)N)NC(=O)[C@@H](N)CCCN=C(N)N` [RRWWR], the MIC in [42] was not below 81.5 µM; in test [43], not below 87.3 µM; in test [44] it was not below 116 µM; in test [45], 29.1 µM (≈ 25 µg/mL); in test [46] it was 29.1 µM (≈ 25 µg/mL); in test [47] it was 23.3 µM (≈ 20 µg/mL).
